Consider 14 compounds from ChEMBL document CHEMBL4028813, “Inhibitors of protein arginine deiminases and their efficacy in animal models of multiple sclerosis” (Bioorg Med Chem, 2017).

The structures appear in SMILES notation. Activity calls are given as the source filed them. No cut-off for these calls is given here.

Data set [1] has as its target T1, Protein-arginine deiminase type-1 (Homo sapiens) (UniProt Q9ULC6).
T1 sequence (whole entry): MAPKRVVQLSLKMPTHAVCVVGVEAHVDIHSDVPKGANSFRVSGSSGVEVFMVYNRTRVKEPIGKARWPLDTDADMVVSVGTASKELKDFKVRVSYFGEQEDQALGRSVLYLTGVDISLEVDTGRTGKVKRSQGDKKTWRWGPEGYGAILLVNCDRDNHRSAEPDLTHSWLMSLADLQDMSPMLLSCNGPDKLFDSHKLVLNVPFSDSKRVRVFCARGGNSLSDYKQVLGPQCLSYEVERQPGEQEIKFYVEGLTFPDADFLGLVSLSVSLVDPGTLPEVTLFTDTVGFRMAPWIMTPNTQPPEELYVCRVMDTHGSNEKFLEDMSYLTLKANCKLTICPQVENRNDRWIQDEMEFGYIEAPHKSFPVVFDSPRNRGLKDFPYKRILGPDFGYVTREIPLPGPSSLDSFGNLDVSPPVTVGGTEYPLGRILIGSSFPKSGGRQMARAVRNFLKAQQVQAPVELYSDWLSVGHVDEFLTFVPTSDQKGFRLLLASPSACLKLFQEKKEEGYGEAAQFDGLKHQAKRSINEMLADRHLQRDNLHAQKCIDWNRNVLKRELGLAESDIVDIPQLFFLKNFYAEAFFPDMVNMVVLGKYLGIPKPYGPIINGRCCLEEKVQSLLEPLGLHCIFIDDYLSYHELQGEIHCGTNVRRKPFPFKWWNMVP
The data set can be described thus: Inhibition of human PAD1 up to 10 mM using benzoyl arginine ethylester as substrate preincubated for 30 mins followed by substrate addition measured after 30 mins by colorimetric assay.

For data set [2], the target named is T2, Protein-arginine deiminase type-4 (Homo sapiens, UniProt Q9UM07). The data set can be described thus: Inhibition of full length recombinant human N-terminal GST-tagged PAD4 expressed in baculovirus infected Sf9 cells up to 10 mM using benzoyl arginine ethylester as substrate preincubated for 30 mins followed by substrate addition measured after 30 mins by colorimetric assay.
T2 sequence (Q9UM07 whole entry): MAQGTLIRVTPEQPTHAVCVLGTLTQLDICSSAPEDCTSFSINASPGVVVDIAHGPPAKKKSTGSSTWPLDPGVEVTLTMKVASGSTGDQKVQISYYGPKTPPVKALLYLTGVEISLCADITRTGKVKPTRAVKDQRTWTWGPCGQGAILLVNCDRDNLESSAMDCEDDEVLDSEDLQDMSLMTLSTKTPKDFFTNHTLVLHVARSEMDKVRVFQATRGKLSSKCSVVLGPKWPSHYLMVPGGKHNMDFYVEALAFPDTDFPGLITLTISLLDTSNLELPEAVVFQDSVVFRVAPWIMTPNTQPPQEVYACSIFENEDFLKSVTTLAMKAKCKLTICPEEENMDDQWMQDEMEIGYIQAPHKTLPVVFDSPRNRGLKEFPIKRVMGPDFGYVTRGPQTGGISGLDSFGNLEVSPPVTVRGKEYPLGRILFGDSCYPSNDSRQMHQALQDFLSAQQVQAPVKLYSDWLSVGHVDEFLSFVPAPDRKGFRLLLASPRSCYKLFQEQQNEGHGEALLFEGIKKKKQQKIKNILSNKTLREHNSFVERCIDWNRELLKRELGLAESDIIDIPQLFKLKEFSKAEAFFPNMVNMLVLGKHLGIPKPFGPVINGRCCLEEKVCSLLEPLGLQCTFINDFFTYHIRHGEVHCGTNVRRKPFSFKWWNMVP

Data set [3] has as its target Protein-arginine deiminase type-2 (Mus musculus) (UniProt Q08642). The data set is described as follows: Inhibition of full length recombinant mouse N-terminal GST-tagged PAD2 expressed in baculovirus infected Sf9 cells up to 10 mM using benzoyl arginine ethyl ester as substrate preincubated for 30 mins followed by substrate addition measured after 30 mins by colorimetric assay.

Data set [4] has as its system Mus musculus. The data set can be described thus: Antiinflammatory activity in MOG peptide/complete freund's adjuvant/pertussis toxin-induced C57BL/6 mouse autoimmune encephalomyelitis model assessed as reduction in accumulation of MAC3 positive cells in brain at 100 mg/kg, ip administered once daily for 40 days measured post last dose. Type of data set: functional, organism-based.

The subject of data set [5] is Mus musculus. The data set is described as follows: Toxicity in MOG peptide/complete freund's adjuvant/pertussis toxin-induced C57BL/6 mouse autoimmune encephalomyelitis model assessed as change in body weight at 100 mg/kg, ip administered once daily for 40 days measured during compound dosing. In kind it is organism-based. The following applies: in vivo, 960 h.
Data set [6] relates to Mus musculus. The data set can be described thus: Antiinflammatory activity in MOG peptide/complete freund's adjuvant/pertussis toxin-induced C57BL/6 mouse autoimmune encephalomyelitis model assessed as reduction in accumulation of CD3 positive cells in brain at 100 mg/kg, ip administered once daily for 40 days measured post last dose. In kind it is functional, organism-based.

The target in data set [7] is T3, Protein-arginine deiminase type-1 (Homo sapiens, UniProt Q9ULC6).
T3 sequence (Q9ULC6 whole entry): T1 sequence (whole entry)
The data set can be described thus: Inhibition of human PAD1 using BAEE as substrate preincubated for 30 mins followed by substrate addition measured after 30 mins by colorimetric assay.

Data set [8] is described as follows: Toxicity in MOG peptide/complete freund's adjuvant/pertussis toxin-induced C57BL/6 mouse autoimmune encephalomyelitis model assessed as death at 100 mg/kg, ip administered once daily for 40 days measured during compound dosing (reference value: 21%). Type of data set: organism-based. Conditions: in vivo, read-out: Activity.
Data set [9] relates to Mus musculus. The data set can be described thus: Antiinflammatory activity in MOG peptide/complete freund's adjuvant/pertussis toxin-induced C57BL/6 mouse autoimmune encephalomyelitis model assessed as improvement in physical disability at 100 mg/kg, ip administered once daily for 40 days measured daily during compound dosing. Type of data set: functional, organism-based.

The target in data set [10] is Protein-arginine deiminase type-2 (Mus musculus, UniProt Q08642). The data set is described as follows: Inhibition of full length recombinant mouse N-terminal GST-tagged PAD2 expressed in baculovirus infected Sf9 cells using benzoyl arginine ethyl ester as substrate preincubated for 30 mins followed by substrate addition measured after 30 mins by colorimetric assay.
Sequence of Protein-arginine deiminase type-2 (Q08642 whole entry): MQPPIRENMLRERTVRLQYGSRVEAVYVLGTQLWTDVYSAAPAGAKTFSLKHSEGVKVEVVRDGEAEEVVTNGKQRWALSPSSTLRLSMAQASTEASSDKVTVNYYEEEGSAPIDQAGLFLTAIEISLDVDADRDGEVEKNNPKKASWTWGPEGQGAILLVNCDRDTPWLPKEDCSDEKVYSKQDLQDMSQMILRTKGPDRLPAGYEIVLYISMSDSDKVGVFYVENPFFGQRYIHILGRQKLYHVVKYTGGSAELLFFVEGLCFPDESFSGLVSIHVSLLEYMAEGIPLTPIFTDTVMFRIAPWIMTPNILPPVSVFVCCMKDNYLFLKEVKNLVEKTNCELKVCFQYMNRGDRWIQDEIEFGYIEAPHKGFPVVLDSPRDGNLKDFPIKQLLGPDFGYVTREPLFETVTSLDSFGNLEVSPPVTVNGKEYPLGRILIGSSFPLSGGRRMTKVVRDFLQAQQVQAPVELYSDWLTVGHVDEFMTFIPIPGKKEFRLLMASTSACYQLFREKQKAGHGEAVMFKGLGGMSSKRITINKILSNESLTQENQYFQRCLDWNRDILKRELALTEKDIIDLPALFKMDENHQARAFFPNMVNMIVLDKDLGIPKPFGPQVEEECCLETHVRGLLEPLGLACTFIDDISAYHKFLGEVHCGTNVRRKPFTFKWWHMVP

Data set [11] deals with Mus musculus. The data set is described as follows: Antiinflammatory activity in MOG peptide/complete freund's adjuvant/pertussis toxin-induced C57BL/6 mouse autoimmune encephalomyelitis model assessed as reduction in inflammatory lesions in brain at 100 mg/kg, ip administered once daily for 40 days measured post last dose by hematoxylin and eosin/Luxol-fast blue staining based assay. Type of data set: functional, organism-based.

The target in data set [12] is T2, Protein-arginine deiminase type-4. The data set can be described thus: Inhibition of full length recombinant human N-terminal GST-tagged PAD4 expressed in baculovirus infected Sf9 cells using benzoyl arginine ethylester as substrate preincubated for 30 mins followed by substrate addition measured after 30 mins by colorimetric assay.
A short description of data set [13]: Half life in C57BL/6 mouse brain at 100 mg/kg, ip administered as single dose by UPLC-MS analysis. Type of data set: ADME, organism-based.
The test system of data set [14] is Mus musculus. The data set is described as follows: Antiinflammatory activity in MOG peptide/complete freund's adjuvant/pertussis toxin-induced C57BL/6 mouse autoimmune encephalomyelitis model assessed as increase in myelin content at 100 mg/kg, ip administered once daily for 40 days measured post last dose by LFB /H and E staining based assay. Type of data set: functional, organism-based.

The subject of data set [15] is Mus musculus. The data set is described as follows: Toxicity in MOG peptide/complete freund's adjuvant/pertussis toxin-induced C57BL/6 mouse autoimmune encephalomyelitis model assessed as change in body weight at 50 mg/kg, ip administered once daily for 40 days measured during compound dosing. In kind it is organism-based. The following applies: in vivo, 960 h.
Data set [16] is described as follows: Half life in C57BL/6 mouse serum at 100 mg/kg, ip administered as single dose by UPLC-MS analysis. Type of data set: ADME, organism-based.
Data set [17] in a line: Tmax in C57BL/6 mouse serum at 100 mg/kg, ip administered as single dose by UPLC-MS analysis. Type of data set: ADME, organism-based.
The test system of data set [18] is Mus musculus. The data set can be described thus: Antiinflammatory activity MOG peptide/complete freund's adjuvant/pertussis toxin-induced C57BL/6 mouse autoimmune encephalomyelitis model assessed as reduction in scar tissue around blood vessels in brain at 100 mg/kg, ip administered once daily for 40 days measured post last dose by LFB/H and E staining based assay. In kind it is functional, organism-based.

A short description of data set [19]: Toxicity in MOG peptide/complete freund's adjuvant/pertussis toxin-induced C57BL/6 mouse autoimmune encephalomyelitis model assessed as death at 50 mg/kg, ip administered once daily for 40 days measured during compound dosing (reference value: 20%). In kind it is organism-based. Conditions: in vivo, read-out: Activity.
The subject of data set [20] is Mus musculus. The data set can be described thus: Neuroprotective activity in CPZ-induced demyelination C57BL/6 mouse model assessed as increase in myelin content at 100 mg/kg, ip dosed daily for 6 weeks measured post last dose by LFB staining based immunohistochemical method. In kind it is functional, organism-based.
Data set [21] in a line: Cmax in C57BL/6 mouse brain at 100 mg/kg, ip administered as single dose by UPLC-MS analysis. Also noted: dose 100 mg/kg, route intraperitoneal. Type of data set: ADME, organism-based.
The nature of data set [22]: Elimination rate constant in C57BL/6 mouse brain at 100 mg/kg, ip administered as single dose by UPLC-MS analysis. In kind it is ADME, organism-based.
Data set [23] can be described thus: AUC (0 to 360 mins) in C57BL/6 mouse brain at 100 mg/kg, ip administered as single dose by UPLC-MS analysis. In kind it is ADME, organism-based. The arrangement: dose 100 mg/kg, time < 6 hr, route intraperitoneal.
Data set [24] can be described thus: Elimination rate constant in C57BL/6 mouse serum at 100 mg/kg, ip administered as single dose by UPLC-MS analysis. In kind it is ADME, organism-based.
Data set [25] is described as follows: Tmax in C57BL/6 mouse brain at 100 mg/kg, ip administered as single dose by UPLC-MS analysis. Type of data set: ADME, organism-based.
Data set [26] in a line: Cmax in C57BL/6 mouse serum at 100 mg/kg, ip administered as single dose by UPLC-MS analysis. Type of data set: ADME, organism-based. Also noted: dose 100 mg/kg, route intraperitoneal.
The nature of data set [27]: AUC (0 to 360 mins) in C57BL/6 mouse serum at 100 mg/kg, ip administered as single dose by UPLC-MS analysis. Type of data set: ADME, organism-based. The arrangement: time < 6 hr, dose 100 mg/kg, route intraperitoneal.
Data set [28] deals with Mus musculus. The data set can be described thus: Antiinflammatory activity in ip dosed MOG peptide/complete freund's adjuvant/pertussis toxin-induced C57BL/6 mouse autoimmune encephalomyelitis model assessed as improvement in physical disability administered once daily for 40 days measured daily during compound dosing. In kind it is functional, organism-based.
For data set [29], the system named is Mus musculus. The data set is described as follows: Antiinflammatory activity in MOG peptide/complete freund's adjuvant/pertussis toxin-induced C57BL/6 mouse autoimmune encephalomyelitis model assessed as improvement in physical disability at 50 mg/kg, ip administered once daily for 40 days measured daily during compound dosing. Type of data set: functional, organism-based.

Sequence of Protein-arginine deiminase type-2 (Mus musculus) (Q08642 whole entry): as above

Consider `CN1CCN(CCN2C(=O)NC(C)(C)C2=O)CC1`, for which the inhibition result in data set [1], in data set [2] and in data set [3] was “inactive” each time.

For `CC1(C)NC(=O)N(CCc2nnn[nH]2)C1=O`, the result in the data set on Mus musculus [4], in the data set with Mus musculus [6], in the data set with Mus musculus [9] and with Mus musculus [11] was Active. The Activity entry with Mus musculus [5] is “Non-Toxic”. The Ki (commonly the equilibrium dissociation constant of an inhibitor or competing ligand from its target) was 384 µM in data set [7] and 30 µM in data set [10]. For the same compound, the mortality at 960 h in data set [8] was determined as 8%.

Turning to `CC1(C)NC(=O)N(CCN2CCOCC2)C1=O`, the Ki stood at 1430 µM in [12] and 602 µM in data set [7].

Turning to `CC1(C)NC(=O)N(CCn2cncn2)C1=O`, the inhibition entry in data set [1], in data set [2] and in [3] was “inactive” throughout.

Take `CC1(C)NC(=O)N(CN2CCNCC2)C1=O`: the Ki came out at 183 µM in data set [12], 445 µM in data set [7] and 179 µM in data set [10]. Moreover, in the data set on Mus musculus [5], the Activity result is “Non-Toxic”. The outcome with Mus musculus [9] was Active.

Turning to `Cc1nccn1CCN1C(=O)NC(C)(C)C1=O`, the inhibition entry in data set [2] and in data set [3] was “inactive” throughout. The compound also showed a Ki in [7] of 2420 µM.

Take `Cc1cnc(C)n1CCN1C(=O)NC(C)(C)C1=O`: the inhibition entry in data set [1], in data set [2] and in data set [3] was “inactive” each time.

`CC1(C)NC(=O)N(CCN2CCCC2)C1=O`: the Ki in data set [12] came to 4640 µM. Moreover, the inhibition result in data set [1] and in [3] was “inactive” throughout.

Turning to `Cc1cn(CCN2C(=O)NC(C)(C)C2=O)cn1`, the inhibition result in data set [1], in data set [2] and in data set [3] was “inactive” throughout.

Take `CC1(C)NC(=O)N(CCN2CCNCC2)C1=O`: the inhibition result in data set [1] and in data set [2] was “inactive” in each case. Also, the Ki in data set [10] amounted to 714 µM.

On to `CC(C)c1nccn1CCN1C(=O)NC(C)(C)C1=O`, for which the inhibition result in data set [1], in data set [2] and in data set [3] was “inactive” each time.

Turning to `CC1(C)NC(=O)N(CCn2ccnc2)C1=O`, the half-life (commonly how long it takes for the measured level to halve) in data set [13] worked out at 99 min; in [16] it was 12.6 min. Moreover, the outcome in the data set with Mus musculus [4], with Mus musculus [14], in the data set with Mus musculus [18], in the data set on Mus musculus [20], in the data set with Mus musculus [6] and in the data set with Mus musculus [9] was Active. The outcome with Mus musculus [11] was Active. Also, the Ki in [12] came out at 632 µM; in data set [10], 4620 µM. Also, the Activity entry in the data set with Mus musculus [15] was “Non-Toxic”; in the data set on Mus musculus [5], “Non-Toxic”; in the data set with Mus musculus [28], “Dose-dependent effect”. Moreover, the Tmax (commonly the time at which the peak concentration occurs) in [17] is 5 min; in data set [25], 45 min. Besides, the inhibition result in [1] is “inactive”. Besides, the values for the mortality at 960 h in data set [19] and in data set [8] were 29% and 0%, respectively. Moreover, the peak concentration (Cmax) (usually the peak of the concentration-time curve) is 7.3 ng/mL in data set [21] and 79900 ng/mL in [26]. Besides, the k el in [22] is 0.000117 s⁻¹; in data set [24], 0.000917 s⁻¹. Further, the AUC(0-t) (commonly exposure summed from dosing to a finite time, without extrapolation to infinity) at 6 h is 12.3 ng·h/mL in data set [23] and 28000 ng·h/mL in data set [27]. Moreover, in the data set with Mus musculus [29], the result was inactive.

In the case of `CC1(C)NC(=O)N(CCn2cncc2CO)C1=O`, the inhibition result in [1], in data set [2] and in [3] was “inactive” throughout.

In the case of `CC1(C)NC(=O)N(CCn2ccnn2)C1=O`, the inhibition entry in data set [1], in data set [2] and in [3] was “inactive” throughout.
